From the supplement of paper PMC10307832

Legend:
Test in all cases: relative viability (nuclei count vs DMSO), 5 days (fraction); higher = more cells survive
[1] = compound: CC1=C(C=C(C=C1)NC(=O)C2=CC(=CC=C2)C(C)(C)C#N)NC3=CC4=C(C=C3)N=CN(C4=O)C [AZ628]
Outline: (§1)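 For viability, nuclei in each treated well were divided by nuclei in vehicle wells and the median across plates was taken. Lung cancer cell lines in 1536-well plates were pinned with five library-drug doses (not always all listed) spaced by √10, cultured 5 days without medium change, and imaged at 4× after Hoechst staining, with plates passing only at control CV below 25% and at least one doubling.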

[2] = compound: C1CC2=C(C1)C=C(C=C2)OC3=NC(=C4C(=N3)N(C=N4)CC5=CC=C(C=C5)C6=CC=CC=C6)N[C@@H](CC7=CC=CC=C7)CO [QS11]
Outline: as §1

[3] = compound: C[As](C)SC[C@H](NC(=O)CC[C@H](N)C(=O)O)C(=O)NCC(=O)O [Darinaparsin]
Outline: as §1

[4] = compound: C1CC2=C(C1)C=C(C=C2)OC3=NC(=C4C(=N3)N(C=N4)CC5=CC=C(C=C5)C6=CC=CC=C6)N[C@@H](CC7=CC=CC=C7)CO [QS11] + CC(=O)Nc1cccc(-n2c(=O)n(C3CC3)c(=O)c3c(Nc4ccc(I)cc4F)n(C)c(=O)c(C)c32)c1 [Trametinib] (partner 0.02 µM)
Outline: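 Lung cancer cell lines were seeded in 1536-well plates and dosed by pin tool the next day, with either a single drug or a fixed anchor-drug dose combined with five library-drug doses (not always all listed) spaced in √10 steps. Five days later, one step fixed the cells and stained their nuclei (final 0.05% Triton X-100, 1% formaldehyde, 1 ug/ml Hoechst), and nuclei were counted on 4× images. Relative viability is the nuclei count in treated wells divided by the count in vehicle wells, and each value is the median of duplicate plates.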

Work on COR-L 105 yielded a relative viability ([1]; 0.08 µM) of 1.01, a relative viability ([1]; 0.253 µM) of 1.14 and a relative viability ([1]; 0.8 µM) of 0.951. It also gave a relative viability ([1]; 2.53 µM) of 0.928, a relative viability ([1]; 8 µM) of 0.592 and a relative viability ([2]; 0.08 µM) of 0.895. For the same cell line, the relative viability ([2]; 0.253 µM) was 0.89, the relative viability ([2]; 0.8 µM) was 0.822 and the relative viability ([2]; 2.53 µM) was 0.892. For the same cell line, the relative viability ([2]; 8 µM) was 0.831, the relative viability ([3]; 0.08 µM) was 0.996 and the relative viability ([3]; 0.8 µM) was 0.986. For the same cell line, the relative viability ([3]; 2.53 µM) was 0.781, the relative viability ([3]; 8 µM) was 1.03 and the relative viability ([4]; first compound 0.08 µM) was 0.433. It also gave a relative viability ([4]; first compound 0.253 µM) of 0.424, a relative viability ([4]; first compound 0.8 µM) of 0.414 and a relative viability ([4]; first compound 2.53 µM) of 0.415. The relative viability ([4]; first compound 8 µM) was 0.445.

Cell Line BEN has a relative viability ([1]; 0.08 µM) of 1.11, a relative viability ([1]; 0.253 µM) of 0.838 and a relative viability ([1]; 0.8 µM) of 0.899. It also gave a relative viability ([1]; 2.53 µM) of 1.01, a relative viability ([1]; 8 µM) of 0.843 and a relative viability ([2]; 0.08 µM) of 0.821. The relative viability ([2]; 0.253 µM) was 1.03, the relative viability ([2]; 0.8 µM) was 1.13 and the relative viability ([2]; 2.53 µM) was 1.1. For the same cell line, the relative viability ([2]; 8 µM) was 1.25, the relative viability ([3]; 0.08 µM) was 1.08 and the relative viability ([3]; 0.8 µM) was 1.03. The relative viability ([3]; 2.53 µM) was 0.92, the relative viability ([3]; 8 µM) was 1.3 and the relative viability ([4]; first compound 0.08 µM) was 1.06. It also gave a relative viability ([4]; first compound 0.253 µM) of 1.11, a relative viability ([4]; first compound 0.8 µM) of 1.08 and a relative viability ([4]; first compound 2.53 µM) of 1.12. For the same cell line, the relative viability ([4]; first compound 8 µM) was 1.11.

NCI-H520 was tested, and the relative viability ([1]; 0.08 µM) was 1.06, the relative viability ([1]; 0.253 µM) was 0.994 and the relative viability ([1]; 0.8 µM) was 0.937. For the same cell line, the relative viability ([1]; 2.53 µM) was 0.937, the relative viability ([1]; 8 µM) was 0.878 and the relative viability ([2]; 0.08 µM) was 0.864. It also gave a relative viability ([2]; 0.253 µM) of 1.04, a relative viability ([2]; 0.8 µM) of 1.12 and a relative viability ([2]; 2.53 µM) of 1.11. It also gave a relative viability ([2]; 8 µM) of 1.14, a relative viability ([3]; 0.08 µM) of 1.12 and a relative viability ([3]; 0.8 µM) of 0.947. It also gave a relative viability ([3]; 2.53 µM) of 0.833, a relative viability ([3]; 8 µM) of 1.09 and a relative viability ([4]; first compound 0.08 µM) of 0.676. The relative viability ([4]; first compound 0.253 µM) was 0.789, the relative viability ([4]; first compound 0.8 µM) was 0.83 and the relative viability ([4]; first compound 2.53 µM) was 0.65. It also gave a relative viability ([4]; first compound 8 µM) of 0.755.

Cell Line ChaGo-K-1 has a relative viability ([1]; 0.08 µM) of 1.14, a relative viability ([1]; 0.253 µM) of 0.965 and a relative viability ([1]; 0.8 µM) of 0.984. For the same cell line, the relative viability ([1]; 2.53 µM) was 1.06, the relative viability ([1]; 8 µM) was 1.01 and the relative viability ([2]; 0.253 µM) was 1. For the same cell line, the relative viability ([2]; 0.8 µM) was 1.11, the relative viability ([2]; 2.53 µM) was 1.09 and the relative viability ([2]; 8 µM) was 1.14. The relative viability ([3]; 0.08 µM) was 1.07, the relative viability ([3]; 0.8 µM) was 1.01 and the relative viability ([3]; 2.53 µM) was 0.949. For the same cell line, the relative viability ([3]; 8 µM) was 1.03, the relative viability ([4]; first compound 0.253 µM) was 0.984 and the relative viability ([4]; first compound 0.8 µM) was 0.972. It also gave a relative viability ([4]; first compound 2.53 µM) of 0.886 and a relative viability ([4]; first compound 8 µM) of 0.931.

With NCI-H2405 the relative viability ([1]; 0.08 µM) was 0.724, the relative viability ([1]; 0.253 µM) was 0.476 and the relative viability ([1]; 0.8 µM) was 0.612. It also gave a relative viability ([1]; 2.53 µM) of 0.67, a relative viability ([1]; 8 µM) of 0.558 and a relative viability ([2]; 0.08 µM) of 0.976. The relative viability ([2]; 0.253 µM) was 0.992, the relative viability ([2]; 0.8 µM) was 0.875 and the relative viability ([2]; 2.53 µM) was 1.09. For the same cell line, the relative viability ([2]; 8 µM) was 1.07, the relative viability ([3]; 0.08 µM) was 1.09 and the relative viability ([3]; 0.8 µM) was 0.926. For the same cell line, the relative viability ([3]; 2.53 µM) was 0.975, the relative viability ([3]; 8 µM) was 1.04 and the relative viability ([4]; first compound 0.08 µM) was 0.628. The relative viability ([4]; first compound 0.253 µM) was 0.585, the relative viability ([4]; first compound 0.8 µM) was 0.731 and the relative viability ([4]; first compound 2.53 µM) was 0.719. For the same cell line, the relative viability ([4]; first compound 8 µM) was 0.79.

Cell Line NCI-H2087 has a relative viability ([1]; 0.08 µM) of 0.92, a relative viability ([1]; 0.253 µM) of 0.671 and a relative viability ([1]; 0.8 µM) of 0.729. The relative viability ([1]; 2.53 µM) was 0.814, the relative viability ([1]; 8 µM) was 0.336 and the relative viability ([2]; 0.08 µM) was 1.02. It also gave a relative viability ([2]; 0.253 µM) of 0.937, a relative viability ([2]; 0.8 µM) of 0.854 and a relative viability ([2]; 2.53 µM) of 0.874. The relative viability ([2]; 8 µM) was 0.898, the relative viability ([3]; 0.08 µM) was 1.14 and the relative viability ([3]; 0.8 µM) was 1.14. It also gave a relative viability ([3]; 2.53 µM) of 1.01, a relative viability ([3]; 8 µM) of 1.13 and a relative viability ([4]; first compound 0.08 µM) of 0.243. The relative viability ([4]; first compound 0.253 µM) was 0.219, the relative viability ([4]; first compound 0.8 µM) was 0.211 and the relative viability ([4]; first compound 2.53 µM) was 0.22. For the same cell line, the relative viability ([4]; first compound 8 µM) was 0.205.

In the case of NCI-H460, the relative viability ([1]; 0.08 µM) was 0.977, the relative viability ([1]; 0.253 µM) was 0.996 and the relative viability ([1]; 0.8 µM) was 0.908. For the same cell line, the relative viability ([1]; 2.53 µM) was 1.04, the relative viability ([1]; 8 µM) was 0.673 and the relative viability ([2]; 0.08 µM) was 1.05. For the same cell line, the relative viability ([2]; 0.253 µM) was 1.02, the relative viability ([2]; 0.8 µM) was 0.777 and the relative viability ([2]; 2.53 µM) was 0.96. The relative viability ([2]; 8 µM) was 0.796, the relative viability ([3]; 0.08 µM) was 1.1 and the relative viability ([3]; 0.8 µM) was 1. It also gave a relative viability ([3]; 2.53 µM) of 0.997, a relative viability ([3]; 8 µM) of 1.35 and a relative viability ([4]; first compound 0.08 µM) of 0.13. The relative viability ([4]; first compound 0.253 µM) was 0.158, the relative viability ([4]; first compound 0.8 µM) was 0.131 and the relative viability ([4]; first compound 2.53 µM) was 0.0849. For the same cell line, the relative viability ([4]; first compound 8 µM) was 0.0752.

LCLC-103H was tested, and the relative viability ([1]; 0.08 µM) was 0.99, the relative viability ([1]; 0.253 µM) was 0.891 and the relative viability ([1]; 0.8 µM) was 1.07. It also gave a relative viability ([1]; 2.53 µM) of 0.998, a relative viability ([1]; 8 µM) of 0.903 and a relative viability ([2]; 0.08 µM) of 1.01. It also gave a relative viability ([2]; 0.253 µM) of 1, a relative viability ([2]; 0.8 µM) of 0.749 and a relative viability ([2]; 2.53 µM) of 0.988. The relative viability ([2]; 8 µM) was 1.05, the relative viability ([3]; 0.08 µM) was 1.15 and the relative viability ([3]; 0.8 µM) was 0.923. For the same cell line, the relative viability ([3]; 2.53 µM) was 0.976, the relative viability ([3]; 8 µM) was 1.15 and the relative viability ([4]; first compound 0.08 µM) was 0.705. For the same cell line, the relative viability ([4]; first compound 0.253 µM) was 0.681, the relative viability ([4]; first compound 2.53 µM) was 0.68 and the relative viability ([4]; first compound 8 µM) was 0.595.

With NCI-H1650 the relative viability ([1]; 0.08 µM) was 1.13, the relative viability ([1]; 0.253 µM) was 1.1 and the relative viability ([1]; 0.8 µM) was 1.09. The relative viability ([1]; 2.53 µM) was 0.904, the relative viability ([1]; 8 µM) was 0.888 and the relative viability ([2]; 0.08 µM) was 0.941. It also gave a relative viability ([2]; 0.253 µM) of 0.786, a relative viability ([2]; 0.8 µM) of 0.72 and a relative viability ([2]; 2.53 µM) of 0.962. For the same cell line, the relative viability ([2]; 8 µM) was 0.867, the relative viability ([3]; 0.08 µM) was 0.971 and the relative viability ([3]; 0.8 µM) was 0.951. For the same cell line, the relative viability ([3]; 2.53 µM) was 0.833, the relative viability ([3]; 8 µM) was 1.03 and the relative viability ([4]; first compound 0.08 µM) was 0.459. For the same cell line, the relative viability ([4]; first compound 0.253 µM) was 0.667, the relative viability ([4]; first compound 0.8 µM) was 0.366 and the relative viability ([4]; first compound 2.53 µM) was 0.751. The relative viability ([4]; first compound 8 µM) was 0.552.

NCI-H441 gave a relative viability ([1]; 0.08 µM) of 0.932, a relative viability ([1]; 0.253 µM) of 1.02 and a relative viability ([1]; 0.8 µM) of 0.988. For the same cell line, the relative viability ([1]; 2.53 µM) was 1.06, the relative viability ([1]; 8 µM) was 0.787 and the relative viability ([2]; 0.08 µM) was 0.978. It also gave a relative viability ([2]; 0.253 µM) of 1.04, a relative viability ([2]; 0.8 µM) of 0.92 and a relative viability ([2]; 2.53 µM) of 0.985. For the same cell line, the relative viability ([2]; 8 µM) was 0.855, the relative viability ([3]; 0.08 µM) was 1.49 and the relative viability ([3]; 0.8 µM) was 1.14. For the same cell line, the relative viability ([3]; 2.53 µM) was 0.991, the relative viability ([3]; 8 µM) was 1.26 and the relative viability ([4]; first compound 0.08 µM) was 0.59. For the same cell line, the relative viability ([4]; first compound 0.253 µM) was 0.424, the relative viability ([4]; first compound 0.8 µM) was 0.545 and the relative viability ([4]; first compound 2.53 µM) was 0.56. For the same cell line, the relative viability ([4]; first compound 8 µM) was 0.486.
